In patent publication US11952611B2, “Methods and systems for detection of antibiotic resistance” (Laboratory Corporation of America Holdings, priority 2017, dated 2024):

Legend:
Format in all cases: cell-based, Staphylococcus aureus
MSSA = experiment: Recombinant phage luciferase assay, oxacillin vs cefoxitin (Table 1), MSSA strains
Experimental: Bacterial strains were serially diluted to approximately 1×10^3 CFU/mL and transferred to a 96-well plate at 135 μL per well. 15 μL of oxacillin or cefoxitin were added to the wells to reach a final concentration of 1.0 μg/mL or 2.0 μg/mL of oxicillin or 2.0 μg/mL, 4.0 μg/mL, 8.0 μg/mL, or 10.0 μg/mL of cefoxitin. The plate was then sealed and incubated at 37° C. for 2 hours. 10 μL of recombinant phage (1.6×10^8 pfu/mL) was added to each well. The plate was then re-sealed and incubated at 37° C. for 2 hours. A master mix was made containing 15 μL 5× lysis buffer, 50 μL luciferase assay buffer, and 1 μL luciferase substrate per well. 65 μL of master mix was added to each well. Luminescence from the reactions was read on a GLOMAX® Navigator and relative luminal units (RLU) for each reaction were analyzed. RLU values three times greater than an established background RLU level for LB (>750 RLU) were considered positive. The results, shown in Table 1, indicate that the recombinant phage are capable of detecting the tested bacterial strains.

BAA-1720 MRSA = experiment: MRSA detection from Copan e-Swabs (Table 3)
Experimental: Bacterial strains were serially diluted and Copan e-Swabs™ were inoculated with 100 μL of LB with approximately the target number of cells of 1000 CFU, 500 CFU, 250 CFU, 125 CFU, 63 CFU, 31 CFU, 16 CFU, or 8 CFU. Swabs were then eluted in 1 mL modified Amies solution (included with commercially available Copan e-Swabs™). 135 μL of this solution was added to each well of a 96-well plate. 15 μL of cefoxitin was added to the wells to reach a final concentration of 1.8 μg/mL, 3.6 μg/mL, or 5.4 μg/mL. The plate was then sealed and incubated at 37° C. for 2 hours. 10 μL of recombinant phage (1.6×10^8 pfu/mL) was added to each well. The plate was then re-sealed and incubated at 37° C. for an additional 2 hours. A master mix was made containing 15 μL 5× lysis buffer, 50 μL luciferase assay buffer, and 1 μL luciferase substrate per well. 65 μL of master mix was added to each well. Luminescence from the reactions was read on a GLOMAX® Navigator and relative luminal units (RLU) for each reaction were plotted and analyzed. RLU values three times greater than an established background RLU level for modified Amies solution (>1500 RLU) were considered positive. The results, shown in Table 3, indicate that a positive MRSA determination was made with 17 CFU in a well, originating from approximately 125 CFU on a swab when incubated with the previously established cut-off of 1.8 μg/mL. Positive results are in bold.

12600 - MSSA = experiment: Table 6, MSSA alone
Experimental: (§1) Bacterial strains were serially diluted and transferred to a 96-well plate at 135 μL per well. 15 μL of cefoxitin was added to the wells to reach a final concentration of 1.8 μg/mL. The plate was then sealed and incubated at 37° C. for 2 hours or 3 hours. 10 μL of recombinant phage (1.6×10^8 pfu/mL) was added to each well. The plate was then re-sealed and incubated at 37° C. for an additional 1 or 2 hours. A master mix was made containing 15 μL 5× lysis buffer, 50 μL luciferase assay buffer, and 1 μL luciferase substrate per well. 65 μL of master mix was added to each well. Luminescence from the reactions was read on a GLOMAX® Navigator and relative luminal units (RLU) for each reaction were plotted and analyzed. RLU values three times greater than an established background RLU level for LB (>750 RLU) were considered positive. The results, shown in Table 6, indicate that samples with MRSA (38 CFU) can be distinguished from samples containing MSSA (up to 5088 CFU) using a 3-hour antibiotic/1-hour phage incubation protocol. Positive results are in bold. In Table 6, CFU values (318 CFU and 156 CFU) were experimentally validated by direct plating.

BAA-1720 - MRSA = experiment: Table 6, MRSA alone; settings: MSSA detected CFU 0, MRSA 38
Experimental: as §1

[1] = strain 12600 MSSA, detected CFU 389
[2] = strain AR0484 MSSA, detected CFU 153
[3] = strain AR0488 MSSA, detected CFU 285
[4] = strain AR0491 MSSA, detected CFU 300
[5] = target swab CFU 8, detected CFU 1
[6] = target swab CFU 16, detected CFU 1
[7] = target swab CFU 31, detected CFU 1
[8] = target swab CFU 63, detected CFU 9
[9] = target swab CFU 125, detected CFU 17
[10] = target swab CFU 250, detected CFU 41
[11] = target swab CFU 500, detected CFU 72
[12] = target swab CFU 1000, detected CFU 136
[13] = MSSA detected CFU 10176, MRSA 0

With `CO[C@@]1(NC(=O)Cc2cccs2)C(=O)N2C(C(=O)O)=C(COC(N)=O)CS[C@@H]21` [Cefoxitin, cefoxitin] the “detection after incubation with cefoxitin” value (MSSA; 2 ug/mL) was “selective loss of MSSA detection”, the “susceptibility of MSSA strains” value (MSSA; 2 ug/mL) was “susceptible” and the “Cefoxitin (RLU) 2 ug/mL” value (MSSA; [1]) was 797 RLU. For the same compound, the “Cefoxitin (RLU) 4 ug/mL” value (MSSA; [1]) was 475 RLU, the “Cefoxitin (RLU) 8 ug/mL” value (MSSA; [1]) was 332 RLU and the “Cefoxitin (RLU) 10 ug/mL” value (MSSA; [1]) was 277 RLU. The “Cefoxitin (RLU) 2 ug/mL” value (MSSA; [2]) was 227 RLU, the “Cefoxitin (RLU) 4 ug/mL” value (MSSA; [2]) was 195 RLU and the “Cefoxitin (RLU) 8 ug/mL” value (MSSA; [2]) was 197 RLU. The “Cefoxitin (RLU) 10 ug/mL” value (MSSA; [2]) was 204 RLU, the “Cefoxitin (RLU) 2 ug/mL” value (MSSA; [3]) was 254 RLU and the “Cefoxitin (RLU) 4 ug/mL” value (MSSA; [3]) was 220 RLU. For the same compound, the “Cefoxitin (RLU) 8 ug/mL” value (MSSA; [3]) was 213 RLU, the “Cefoxitin (RLU) 10 ug/mL” value (MSSA; [3]) was 229 RLU and the “Cefoxitin (RLU) 2 ug/mL” value (MSSA; [4]) was 207 RLU. The “Cefoxitin (RLU) 4 ug/mL” value (MSSA; [4]) was 234 RLU, the “Cefoxitin (RLU) 8 ug/mL” value (MSSA; [4]) was 187 RLU and the “Cefoxitin (RLU) 10 ug/mL” value (MSSA; [4]) was 191 RLU. The “Cefoxitin (RLU) 1.8 ug/mL” value (BAA-1720 MRSA; [5]) was 559 RLU, the “Cefoxitin (RLU) 3.6 ug/mL” value (BAA-1720 MRSA; [5]) was 429 RLU and the “Cefoxitin (RLU) 5.4 ug/mL” value (BAA-1720 MRSA; [5]) was 336 RLU. The “Cefoxitin (RLU) 1.8 ug/mL” value (BAA-1720 MRSA; [6]) was 1179 RLU, the “Cefoxitin (RLU) 3.6 ug/mL” value (BAA-1720 MRSA; [6]) was 470 RLU and the “Cefoxitin (RLU) 5.4 ug/mL” value (BAA-1720 MRSA; [6]) was 551 RLU. The “Cefoxitin (RLU) 1.8 ug/mL” value (BAA-1720 MRSA; [7]) was 880 RLU, the “Cefoxitin (RLU) 3.6 ug/mL” value (BAA-1720 MRSA; [7]) was 558 RLU and the “Cefoxitin (RLU) 5.4 ug/mL” value (BAA-1720 MRSA; [7]) was 1405 RLU. For the same compound, the “Cefoxitin (RLU) 1.8 ug/mL” value (BAA-1720 MRSA; [8]) was 1280 RLU, the “Cefoxitin (RLU) 3.6 ug/mL” value (BAA-1720 MRSA; [8]) was 1568 RLU and the “Cefoxitin (RLU) 5.4 ug/mL” value (BAA-1720 MRSA; [8]) was 1286 RLU. The “Cefoxitin (RLU) 1.8 ug/mL” value (BAA-1720 MRSA; [9]) was 2512 RLU, the “Cefoxitin (RLU) 3.6 ug/mL” value (BAA-1720 MRSA; [9]) was 1337 RLU and the “Cefoxitin (RLU) 5.4 ug/mL” value (BAA-1720 MRSA; [9]) was 2501 RLU. For the same compound, the “Cefoxitin (RLU) 1.8 ug/mL” value (BAA-1720 MRSA; [10]) was 3766 RLU, the “Cefoxitin (RLU) 3.6 ug/mL” value (BAA-1720 MRSA; [10]) was 4022 RLU and the “Cefoxitin (RLU) 5.4 ug/mL” value (BAA-1720 MRSA; [10]) was 3374 RLU. The “Cefoxitin (RLU) 1.8 ug/mL” value (BAA-1720 MRSA; [11]) was 11590 RLU, the “Cefoxitin (RLU) 3.6 ug/mL” value (BAA-1720 MRSA; [11]) was 7112 RLU and the “Cefoxitin (RLU) 5.4 ug/mL” value (BAA-1720 MRSA; [11]) was 7648 RLU. For the same compound, the “Cefoxitin (RLU) 1.8 ug/mL” value (BAA-1720 MRSA; [12]) was 23820 RLU, the “Cefoxitin (RLU) 3.6 ug/mL” value (BAA-1720 MRSA; [12]) was 17540 RLU and the “Cefoxitin (RLU) 5.4 ug/mL” value (BAA-1720 MRSA; [12]) was 18400 RLU. The “2 HR AB + 2 HR Phage 1.8 ug/mL” value (12600 - MSSA; MSSA detected CFU 156, MRSA 0) was 423 RLU, the “3 HR AB + 1 HR Phage 1.8 ug/mL” value (12600 - MSSA; MSSA detected CFU 156, MRSA 0) was 196 RLU and the “2 HR AB + 2 HR Phage 1.8 ug/mL” value (12600 - MSSA; MSSA detected CFU 318, MRSA 0) was 608 RLU. The “3 HR AB + 1 HR Phage 1.8 ug/mL” value (12600 - MSSA; MSSA detected CFU 318, MRSA 0) was 231 RLU, the “2 HR AB + 2 HR Phage 1.8 ug/mL” value (12600 - MSSA; MSSA detected CFU 636, MRSA 0) was 956 RLU and the “3 HR AB + 1 HR Phage 1.8 ug/mL” value (12600 - MSSA; MSSA detected CFU 636, MRSA 0) was 275 RLU. For the same compound, the “2 HR AB + 2 HR Phage 1.8 ug/mL” value (12600 - MSSA; MSSA detected CFU 1272, MRSA 0) was 1685 RLU, the “3 HR AB + 1 HR Phage 1.8 ug/mL” value (12600 - MSSA; MSSA detected CFU 1272, MRSA 0) was 321 RLU and the “2 HR AB + 2 HR Phage 1.8 ug/mL” value (12600 - MSSA; MSSA detected CFU 2544, MRSA 0) was 4715 RLU. The “3 HR AB + 1 HR Phage 1.8 ug/mL” value (12600 - MSSA; MSSA detected CFU 2544, MRSA 0) was 621 RLU, the “2 HR AB + 2 HR Phage 1.8 ug/mL” value (12600 - MSSA; MSSA detected CFU 5088, MRSA 0) was 8583 RLU and the “3 HR AB + 1 HR Phage 1.8 ug/mL” value (12600 - MSSA; MSSA detected CFU 5088, MRSA 0) was 901 RLU. For the same compound, the “2 HR AB + 2 HR Phage 1.8 ug/mL” value (12600 - MSSA; [13]) was 16340 RLU, the “3 HR AB + 1 HR Phage 1.8 ug/mL” value (12600 - MSSA; [13]) was 1098 RLU and the “2 HR AB + 2 HR Phage 1.8 ug/mL” value (BAA-1720 - MRSA) was 4218 RLU. For the same compound, the “3 HR AB + 1 HR Phage 1.8 ug/mL” value (BAA-1720 - MRSA) was 3136 RLU.
